From US20040063731A1, “Pharmaceutical formulation comprising pyrazolo[4,3-d]pyrimidines and endothelin receptor antagonists or thienopyrimidines and endothelin receptor antagonists” (priority 2001, published 2004)
Where a name gives a salt, the structure may show the parent alone.

Row | Compound | melting point [°C]
1 | COc1ccc(CNc2nc(CCC(=O)O)nc3sc4c(c23)CCCC4)cc1Cl (as salt: salt) [Example 2, 3-[4-(3-chloro-4-methoxybenzylamino)-5,6,7,8-tetrahydro-[1]-benzothieno[2,3-d)pyrimidin-2-yl)propionic acid] | 135
2 | COc1ccc(CNc2nc(CCC(=O)O)nc3sc4c(c23)CCCC4)cc1Cl [Example 2, 3-[4-(3-chloro-4-methoxybenzylamino)-5,6,7,8-tetrahydro-[1]-benzothieno[2,3-d)pyrimidin-2-yl)propionic acid] | 229

Other lines, results leading:

Row | melting point [°C] | Compound
3 | 189 to 190 | COc1ccc(CNc2nc(-c3ccc(C(=O)O)cc3)nc3sc4ccccc4c23)cc1Cl (as salt: salt) [Example 3, 4-[4-(3-chloro-4-methoxybenzylamino)-[1]-benzothieno[2,3-d]-pyrimidin-2-yl]benzoic acid]
4 | 139 | CCCc1nn(C)c2c(NCc3ccc(OC)c(Cl)c3)nc(-c3ccc(C(=O)O)cc3)nc12 (as salt: salt) [Example 3, 4-[7-(3-chloro-4-methoxybenzylamino]-methyl-3-propyl-1H-pyrazolo-[4,3-d]pyrimidin-5-yl]benzoic acid]
5 | 178 | CCCc1nn(C)c2c(NCc3ccc(OC)c(Cl)c3)nc(CCC(=O)O)nc12 [Example 2, 3-[7-(3-chloro-4-methoxybenzylamino)-1-methyl-3-propyl-1H-pyrazolo-[4,3-d]pyrimidin-5-yl]propionic acid]
